Source: patent US20100184815A1 (priority 2008, published 2010)
pEC50: −log10 of the molar value.

What was measured:
Gal-4 hPPARγ = target: T1, Gal-4 hPPARγ (Homo sapiens, UniProt P37231); assay: Gal4-hPPARγ transient transfection reporter assay in Cos cells; assay type: cell-based; settings: luciferase reporter, 24 hours with compound, scale 1-5, read-out: Gal-4 hPPAR γ EC50 (scaled number)
T1 construct: Plasmids pGal4-hPPARα, pGal4-hPPARγ, pGal4-hPPARδ and pG5-TK-pGL3 were constructed as previously described by Staels, Bart, et al., Nature 1998 Jun; 25
T1 sequence (P37231 238-505 limits assumed): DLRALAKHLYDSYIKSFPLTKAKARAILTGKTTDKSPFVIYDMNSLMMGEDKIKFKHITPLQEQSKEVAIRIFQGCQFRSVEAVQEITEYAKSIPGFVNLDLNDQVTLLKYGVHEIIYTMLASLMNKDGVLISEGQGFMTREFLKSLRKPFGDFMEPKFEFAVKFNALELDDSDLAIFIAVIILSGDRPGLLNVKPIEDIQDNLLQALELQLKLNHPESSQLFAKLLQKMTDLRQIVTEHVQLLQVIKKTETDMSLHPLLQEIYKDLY
Summary of the method: (§1)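 Cos cells transiently co-transfected with Gal4-hPPAR expression plasmid, pG5-TK-pGL3 luciferase reporter and β-galactosidase control, then treated 24 h with increasing compound concentrations in DMEM containing 0.2% FCS. Luciferase normalised to β-galactosidase; EC50 from curve fit, at least three experiments.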

[1] = Metabolism studies using human liver microsomal preparations; assay type: in vitro ADME; settings: for HLMs Predominant Enzyme: comparison of half life with and without NADPH: Esterase, CYP or Mixed; for half-life: pH 7.4, pooled human liver microsomes, with NADPH (CYP system active), 37° C., read-out: HLMs t1/2
Summary of the method: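 Pooled human liver microsomes in 50 mM Tris pH 7.4 with 5 mM MgCl2 at 37° C, with or without NADPH-generating system; buffer-only control for stability. Parent loss and acid metabolite formation followed by LC-MS/MS over 0–90 min. Half-life reported with NADPH; comparison with (−)NADPH assigns predominant enzyme.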

Gal-4 hPPARβ/δ = target: T2, Gal-4 hPPARβ/δ (Homo sapiens, UniProt Q03181); assay: Gal4-hPPARδ transient transfection reporter assay in Cos cells; assay type: cell-based; settings: luciferase reporter, 24 hours with compound, scale 1-5, read-out: Gal-4 hPPAR β/δ EC50 (scaled number)
T2 construct: Plasmids pGal4-hPPARα, pGal4-hPPARγ, pGal4-hPPARδ and pG5-TK-pGL3 were constructed as previously described by Staels, Bart, et al., Nature 1998 Jun; 25
T2 sequence (Q03181 171-441 limits assumed): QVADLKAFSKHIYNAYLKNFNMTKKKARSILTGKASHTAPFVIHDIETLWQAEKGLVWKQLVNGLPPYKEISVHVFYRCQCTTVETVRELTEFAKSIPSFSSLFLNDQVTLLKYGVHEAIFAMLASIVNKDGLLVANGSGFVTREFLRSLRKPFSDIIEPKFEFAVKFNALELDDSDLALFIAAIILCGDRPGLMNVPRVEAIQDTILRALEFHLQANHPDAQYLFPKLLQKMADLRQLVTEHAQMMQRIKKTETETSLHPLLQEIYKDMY
Summary of the method: as §1

Row | Structure (SMILES) | pEC50 (Gal-4 hPPARγ) | HLMs Predominant Enzyme [1] | half-life [1] | pEC50 (Gal-4 hPPARβ/δ)
1 | COC(c1ccc(Cn2cc(COC(=O)c3ccc(SC(C)(C)C(=O)O)cc3)nn2)cc1)(C(F)(F)F)C(F)(F)F [Compound 75, 2-(4-(((1-(4-(1,1,1,3,3,3-hexafluoro-2-methoxypropan-2-yl)benzyl)-1H-1,2,3-triazol-4-yl)methoxy)carbonyl)phenylthio)-2-methylpropanoic acid] | < 6.00 | Esterase | 25 min | < 6.00
2 | CCCCCCCn1c(COC(=O)c2ccc(SC(C)(C)C(=O)O)cc2)nn(Cc2ccc(C(C)(C)C)cc2)c1=O [Compound 189, 2-(4-(((1-(4-tert-butylbenzyl)-4-heptyl-5-oxo-4,5-dihydro-1H-1,2,4-triazol-3-yl)methoxy)carbonyl)phenylthio)-2-methylpropanoic acid] | 7.30 to 9.00 | CYP | 90 min | < 6.00
3 | CC(C)(Sc1ccc(C(=O)OCc2cn(Cc3ccc(C(C)(C)C)cc3)nn2)cc1)C(=O)O [Compound 69, 2-(4-(((1-(4-tert-butylbenzyl)-1H-1,2,3-triazol-4-yl)methoxy)carbonyl)phenylthio)-2-methylpropanoic acid] | < 6.00 | Esterase | 60 min | < 6.00
4 | CC(C)(Sc1ccc(C(=O)OCCc2cn(Cc3ccc(C(F)(F)F)cc3)nn2)cc1)C(=O)O [Compound 91, 2-methyl-2-(4-((2-(1-(4-(trifluoromethyl)benzyl)-1H-1,2,3-triazol-4-yl)ethoxy)carbonyl)phenylthio)propanoic acid] | < 6.00 | Mixed | 55 min | < 6.00
